Assay results: US11834424B2, “Compounds useful as chaperone-mediated autophagy modulators” (ALBERT EINSTEIN COLLEGE OF MEDICINE, priority 2018, dated 2023)

Experiments:
[1] = tested on: chaperone-mediated autophagy (CMA) in NIH 3T3 fibroblasts; experiment: Photoswitchable KFERQ-Dendra CMA reporter assay in NIH 3T3 fibroblasts; format: cell-based
Protocol: The photoactivatable CMA reporter assay was constructed by inserting a sequence of 21 amino acid of Ribonuclease A bearing the CMA-targeting motif in the N-terminus multicloning site of the photoactivatable protein mCherryl or the photoswitchable protein Dendra 2.
NIH 3T3 fibroblasts were stably transduced with a photoconvertible CMA reporter, KFERQ-Dendra. were photoswitched by exposure to a […] (constant current) LED (Norlux, 405 nm) for 10 minutes and at the desired times fixed in 3% formaldehyde. Test cells were exposed to the indicated concentrations of the compounds for 12 hours (FIG. 3A) or 24 hours (FIG. 3B). Cells were imaged using high content microscopy (Operetta, Perkin Elmer) or by capturing images with an Axiovert 200 fluorescence microscope (Zeiss) with apotome and equipped with a 63/1.4 NA oil objective lens and red (ex. 570/30 nm, em. 615/30 nm), cyan (ex. 365/50 nm and em. 530/45 nm) and green (ex. 475/40 nm and em. 535/45 nm) filter sets (Chroma). Images were acquired with a high-resolution CCD camera after optical sectioning through the apotome. CMA activity measured as the average number of fluorescent puncta (CMA active lysosomes) per cell. Values are expressed relative to values in untreated cells that were assigned an arbitrary value of 1 and are mean of >2,500 cells counted per condition. The S.D. in all instances was <0.01% mean value. Table 2 provides a comparison of compounds CA39.1 and its comparative example CA39 and CA77.01 and its comparative example CA77.

in vitro = conditions: for CLint(mic) / Remaining (T = 60 min): 3 μM; for Remaining (T = 60 min): 1 h; for CLint scaled at 3 μM: CLint(liver)
Protocol: Microsome stability was determined in human, rat, and mouse, liver microsomes. Compound at 3 μM final concentration along with 0.5 mg/mL microsome protein and 1 mM NADPH was incubated for 0, 5, 15, 30 and 60 min. As a negative control, test compound was incubated with microsomes in the absence of NADPH. Samples were quenched with methanol and centrifuged for 25 min at 2500 rpm to precipitate proteins. Supernatants were analyzed (N=3) by LC-MS/MS. The In peak area ratio (compound peak area/internal standard peak area) was plotted against time and the gradient of the line determined the elimination rate constant [k=(−1)(slope)].
R^2 is the correlation coefficient of the linear regression for the determination of kinetic constant. T1/2 is the half life and CLint (mic) is the intrinsic clearance. CLint(liver)=CLint (mic)*mg microsomal protein/g liver weight*g liver weight/kg body weight. Liver weight/kg body weight is 20 g/kg for human.

[2] = Pharmacokinetics (plasma and brain levels) in ICR (CD-1) mice; format: in vivo; conditions: ICR (CD-1) mice
Protocol: ICR (CD-1) male mice were fasted at least three horns and water was available ad libitum before the study. Animals were housed in a controlled environment, target conditions: temperature 18 to 29° C., relative humidity 30 to 70%. Temperature and relative humidity was monitored daily. An electronic time controlled lighting system was used to provide a 12 h light/12 h dark cycle. 3 mice for each indicated time point. ICR (CD-1) mice were administered CA77 at 1 mg/kg i.v. and 30 mg/kg p.o. or CA77.1 at 1 mg/kg i.v. (FIG. 2A) and 10 mg/kg p.o. (FIG. 2B). Three (3) mice were included in each dosage and time group. Mice were sacrificed and plasma and brains were obtained at 0.083, 0.25, 0.50, 1.0, 2.0, 4.0, 8.0, and 24.0 hours after administration and drug concentration determined using LC-MS/MS. Brains were removed, homogenized with a tissue homogenizer in cold 5% w/v BSA in phosphate buffer saline (PBS). A 100 microliter aliquots of brain samples were dispensed in to glass culture tubes and mixed with ethyl acetate (800 μl), vortexed, and centrifuged. The organic layer was transferred to a fresh culture tube, dried under nitrogen, and reconstituted in mobile phase for quantitation. Pharmacokinetic parameters were determined by standard methods using Phoenix WinNonlin 6.3 software.
Tables 3A and 3B provide the concentrations of CA77 in ICR (CD-1) mouse plasma (3A) and mouse brain (3B) following i.v. administration of 1 mg/kg CA77. Table 3C provides the brain/plasma ratio of CA77 following i.v. administration of 1 mg/kg CA77. Shaded cells indicate data not included in statistics due to aberrant value. BLQ=Below Limit of Quantitation.
Tables 5A and 5B provide the concentrations of CA77.1 in ICR (CD-1) mouse plasma (5A) and mouse brain (5B) following i.v. administration of 1 mg/kg CA77.1. Table 5C provides the brain/plasma ratio of CA77.1 following i.v. administration of 1 mg/kg CA77.1. The plasma and brain pharmacokinetic parameters for CA77.1 are provided in Table 6. *—cells contain data not present in the statistics.

[3] = T1/2, human microsomes, 3 μM compound, 0.5 mg/mL protein, 1 mM NADPH

For `Clc1ccc2c(c1)OCC(c1ccc(-c3ccccc3)cc1)=N2` [CA39, 3-([1,1′-biphenyl]-4-yl)-7-chloro-2H-benzo[b][1,4]oxazine, reference compound], the “CMA activity (fluorescent puncta per cell, relative to untreated cells = 1)” value ([1]; Time 5) was 2.457, the “CMA activity (fluorescent puncta per cell, relative to untreated cells = 1)” value ([1]; Time 10) was 2.619 and the “CMA activity (fluorescent puncta per cell, relative to untreated cells = 1)” value ([1]; Time 20) was 3.587. For the same compound, the “CMA activity (fluorescent puncta per cell, relative to untreated cells = 1)” value ([1]; Time 30) was 4.374, the half-life at 3 μM (in vitro; human, microsomes) was 37.9 min and the CLint(mic) (in vitro; human, microsomes) was 36.6 µL/min/mg. The “Remaining (T = 60 min)” value (in vitro; human, microsomes) was 30.1% and the CLint scaled at 3 μM (in vitro; human, microsomes) was 32.9 mL/min/kg.

In the case of `Clc1ccc2nc(-c3ccc(-c4ccccc4)cc3)cnc2c1` [CA39.1, 2-([1,1′-biphenyl]-4-yl)-6-chloroquinoxaline], the “CMA activity (fluorescent puncta per cell, relative to untreated cells = 1)” value ([1]; Time 5) is reported as 2.107, the “CMA activity (fluorescent puncta per cell, relative to untreated cells = 1)” value ([1]; Time 10) is reported as 2.233 and the “CMA activity (fluorescent puncta per cell, relative to untreated cells = 1)” value ([1]; Time 20) is reported as 2.605. The “CMA activity (fluorescent puncta per cell, relative to untreated cells = 1)” value ([1]; Time 30) was 2.925, the half-life at 3 μM (in vitro; human, microsomes) was greater than 145 min and the CLint(mic) (in vitro; human, microsomes) was less than 9.6 µL/min/mg. For the same compound, the “Remaining (T = 60 min)” value (in vitro; human, microsomes) was 96.0% and the CLint scaled at 3 μM (in vitro; human, microsomes) was less than 8.6 mL/min/kg.

Compound `O=C(O)Cc1ccccc1Nc1c(Cl)cccc1Cl` [Diclofenac] has a half-life at 3 μM (in vitro; [3]) of 15.7 min, a half-life at 3 μM (in vitro; human, microsomes) of 105 min and a CLint scaled at 3 μM (in vitro; human, microsomes) of 94.4 mL/min/kg.

With `C[C@]12CC[C@H]3[C@@H](CCC4=CC(=O)CC[C@@]43C)[C@@H]1CC[C@@H]2O` [Testosterone] the half-life at 3 μM (in vitro; [3]) was 57.5 min.

Work on `O=S(=O)(Nc1ccc(-c2cnc3cc(Cl)ccc3n2)cc1)C(F)(F)F` [CA77, reference compound] yielded an AUCINF_obs ([2]; i.v. 1 mg/kg) of 35.8 ng·h/mL, an AUClast ([2]; i.v. 1 mg/kg) of 35.3 ng·h/mL and a CL_obs ([2]; i.v. 1 mg/kg) of 465 mL/min/kg. It also gave a Cmax ([2]; i.v. 1 mg/kg) of 36.2 ng/mL, an MRTINF_obs ([2]; i.v. 1 mg/kg) of 57.1 min and a T1/2 ([2]; i.v. 1 mg/kg) of 38.1 min. The Tmax ([2]; i.v. 1 mg/kg) was 4.98 min, the VSS_obs ([2]; i.v. 1 mg/kg) was 26.548 L/kg and the F % ([2]; p.o. 30 mg/kg vs i.v. 1 mg/kg) was 124%. It also gave an AUCINF_obs ([2]; p.o. 30 mg/kg) of 1458 ng·h/mL, an AUClast ([2]; p.o. 30 mg/kg) of 1317 ng·h/mL and a CL_obs ([2]; p.o. 30 mg/kg) of 343 mL/min/kg. For the same compound, the Cmax ([2]; p.o. 30 mg/kg) was 278 ng/mL, the MRTINF_obs ([2]; p.o. 30 mg/kg) was 238 min and the T1/2 ([2]; p.o. 30 mg/kg) was 131 min. The Tmax ([2]; p.o. 30 mg/kg) was 120 min.
